In US20230357307A1, “CLEAVABLE CYCLIC LOOP NUCLEOTIDES FOR NANOPORE SEQUENCING” (ILLUMINA, INC., priority 2022, published 2023):

Tested on: polymerase
Test: polymerase incorporation of allyl dTTP (FIG. 7 gel)
Type: biochemical
Conditions: homopolymeric A template
From the text: A polymerase incorporated “allyl dTTP” and “ext allyl dTTP” to a template and primer combination, as indicated by the arrow in FIG. 7, for up to 10 successive incorporations. The reaction conditions as well as the definitions of “allyl dTTP” and “ext allyl dTTP” are given in the right panel of FIG. 7. Moreover, “A” and “B” are referring to the optically pure diastereomers arising from the C5′ allyl carbon center.
Lanes 1 (starting from the left), 3, 5, 7, 9 and 11 were loaded with reactions run for an hour; and Lanes 2, 4, 6, 8, 10 and 12 were loaded with reactions run for 22 hours. Lanes 1 and 2 show: controls with natural dTTP without any arresting constructs (Note, bands above +10 are seen due to the use of a homopolymeric A template, a common observation). Lanes 3 and 4 show: one isomer of Allyl dTTP (“Allyl A dTTP”) is used, the isomer arise from the C-stereogenic center (marked with “+” in the structure shown on the right panel of FIG. 7). Up to +7 incorporation observed after 1 h. […] Lanes 5 and 6 show: one isomer of ext allyl dTTP (“Ext Allyl A dTTP”) is used. Up to +7 incorporation observed after 22h. Slower incorporation possibly due to increased sterics. Lanes 7 and 8 show: the other isomer of Allyl dTTP (“Allyl B dTTP”) is used. Up to +10 incorporation observed after 22h. Lanes 9 and 10 show: the other isomer of ext allyl dTTP (“Ext Allyl B dTTP”) is used. […]

## Cc1cn([C@H]2C[C@H](O)[C@@H](COP(=O)(O)OP(=O)(O)OP(=O)(O)O)O2)c(=O)[nH]c1=O [dTTP]
Reactions run for 22 hours
  incorporation observed (primer +n): above +10
Reactions run for an hour
  incorporation observed (primer +n): above +10
